The test system of one data set is beagle dogs. The experiment in a line: Pre-clinical study in beagle dogs. Format: in vivo, dog.
A further data set deals with patients with MDD. The data set can be described thus: Five Phase II studies of vilazodone, eight weeks of treatment. The class given is in vivo, human. From the text:
As part of the vilazodone development program, five Phase II studies have been conducted, all in patients with MDD. These studies randomized 2,098 patients for eight weeks of treatment, 1196 of whom received vilazodone.

As for `Cl.N#Cc1ccc2[nH]cc(CCCCN3CCN(c4ccc5oc(C(N)=O)cc5c4)CC3)c2c1` [Vilazodone, 5-{4-[4-(5-Cyano-3-indolyl)-butyl]-1-piperazinyl}-benzofuran-2-carboxamide hydrochloride], the ocular findings result in the data set with beagle dogs is “treatment emergent corneal opacities and reduced tear production”. The overall safety result in the data set with patients with MDD (Phase II studies) is recorded as “generally shown to be safe”. The “clinically significant finding from ophthalmologic examinations” value with patients with MDD (Phase II, subjects treated with vilazodone) is listed as “increase in the incidence of mild ocular drying”. The “primary efficacy variable compared to placebo” value with patients with MDD (each of the Phase II studies) is reported as “did not show a statistically significant difference”. Moreover, the “response stratified by baseline disease severity” value in the data set on patients with MDD (exploratory analyses of Phase II studies) is recorded as “a larger treatment effect is observed for more severely depressed patients”. Further, the “most common adverse events” value in the data set with patients with MDD (reported by at least ten percent of vilazodone-treated patients, Phase II, MDD) is “nausea, diarrhea, headache, insomnia, dizziness, dry mouth, somnolence, abnormal dreams, and vomiting”.

Values taken from patent US20090233942A1, “Genetic markers associated with response to antidepressants” (priority 2008, published 2009).
